According to ChEMBL document CHEMBL1149045, “Further butenolides from the Caribbean octocoral Pterogorgia citrina” (J Nat Prod, 1994):
Active and inactive are the calls of the source. The rule behind the calls is not given here.

Columns and labels:
Staphylococcus aureus [1] = test: Antimicrobial activity against Staphylococcus aureus at 5 ug/disk; assay type: functional, organism-based
Escherichia coli [2] = test: Antimicrobial activity against Escherichia coli at 5 ug/disk; assay type: functional, organism-based
Staphylococcus aureus [3] = test: Antimicrobial activity against Staphylococcus aureus at 10 ug/disk; assay type: functional, organism-based
Escherichia coli [4] = test: Antimicrobial activity against Escherichia coli at 1 ug/disk; assay type: functional, organism-based
Escherichia coli [5] = test: Antimicrobial activity against Escherichia coli at 10 ug/disk; assay type: functional, organism-based
Staphylococcus aureus [6] = test: Antimicrobial activity against Staphylococcus aureus at 1 ug/disk; assay type: functional, organism-based
HCT-116 = test: Cytotoxicity against human HCT116 cells; assay type: functional, cell-based

Compound | Activity (Staphylococcus aureus [1]) | Activity (Escherichia coli [2]) | Activity (Staphylococcus aureus [3]) | Activity (Escherichia coli [4]) | Activity (Escherichia coli [5]) | Activity (Staphylococcus aureus [6]) | IC50 (HCT-116) [µg/mL]
CC(=O)O[C@@H]1[C@H](C)OC(=O)[C@@H]1CCCCCCCCCCCCCCC1=C[C@H](C)OC1=O | inactive | inactive | inactive | inactive | inactive | inactive | 
C[C@@H]1OC(=O)[C@@H](CCCCCCCCCCCCC2=C[C@H](C)OC2=O)[C@H]1O | inactive | inactive | inactive | inactive | inactive | inactive | 
C[C@H]1C=C(CCCCCCCCCCCCCCC2=C[C@H](C)OC2=O)C(=O)O1 [HOMOANCEPSENOLIDE] | inactive | inactive | inactive | inactive | inactive | inactive | > 50
CC(=O)O[C@@H]1[C@H](C)OC(=O)[C@@H]1CCCCCC/C=C\CCCCCCC1=C[C@H](C)OC1=O | inactive | inactive | inactive | inactive | inactive | inactive | 
C[C@H]1C=C(CCCCCC/C=C\CCCCCCC2=C[C@H](C)OC2=O)C(=O)O1 | inactive | inactive | inactive | inactive | inactive | inactive | > 50
CC(=O)O[C@@H]1[C@H](C)OC(=O)[C@@H]1CCCCCCCCCCCCC1=C[C@H](C)OC1=O [ANCEPSENOLIDE ACETATE] | inactive | inactive | inactive | inactive | inactive | inactive | > 50
CC(=O)O[C@H]1[C@H](C)OC(=O)[C@H]1CCCCCCCCCCCCCCC1=C[C@H](C)OC1=O | inactive | inactive | inactive | inactive | inactive | inactive | 
CC(=O)O[C@H]1[C@H](C)OC(=O)[C@H]1CCCCCCCCCCCCC1=C[C@H](C)OC1=O | inactive | inactive | inactive | inactive | inactive | inactive | 
